US20170232013A1, “COMPOSITIONS AND METHODS FOR THE TREATMENT OF MUSCULOSKELETAL RELATED DISEASES AND DISORDERS USING METAL ION-CITRATE ANALOG COMPLEXES” (The Charlotte-Mecklenburg Hospital Authority d/b/a …, priority 2011, published 2017)

Legend:
Hartley guinea pigs [1] = experiment: High definition X-ray of front limbs of Hartley guinea pigs after eight months of CaPC; assay type: in vivo; conditions: 30 mg/kg intraperitoneal twice per week
Method: In this example, three month old Hartley guinea pigs were administered 30 mg/kg calcium phosphorcitrate (CaPC) or saline via intraperitoneal injection twice per week. Eight months later, the guinea pigs were sacrificed and examined with high definition X-ray. […] The bone mineral content of the front limb of a CaPC-treated Hartley guinea pig (left photo, the green arrow) was higher than the bone mineral content of a front limb of an untreated Hartley guinea pig (left photo, the green arrow). […] The diameter of the front limb was lager and the bone mineral content was higher in CaPC-treated Hartley guinea pigs that that in untreated Hartley guinea pigs.

Hartley guinea pigs [2] = experiment: Skyscan Micro-CT of distal femurs of Hartley guinea pigs; assay type: in vivo
Method: The distal femurs of the Hartley guinea pigs were also analyzed with Skyscan Micro-CT. The femur of untreated Hartley guinea pigs had less bone volume and larger marrow space than the femur of CaPC-treated Hartley guinea pigs. Micro-CT scan of the femur of Hartley guinea pigs. […] The area showing less trabecular bone and larger marrow space is indicated by a red arrow. In the right image of FIG. 3, the femur of a CaPC-treated Hartley guinea pig is shown.
Femurs, previously stored in 70% ethanol, were cut close to the distal femur condyle. The specimens were left to dry 48-hr before being scanned using Skyscan Micro-CT. A 3-D model was built in the ANT model building program and bisected with a plane down the lateral/midline. Using the model building program, a separate dataset was built forming 30 cross sections on either side of the plane. With this dataset, measurements were taken with the 3D-Calc program. A rectangular region of interest was applied to all 60 sections. The region of interest was placed approximately 0.5 cm down from the growth plate in the central part of the trabeculae and extended downward.

Hartley guinea pigs [3] = experiment: Subchondral bone mineral density by X-ray densitometry; assay type: in vivo
Method: The bone mineral density of subchondral bone of these same Hartley guinea pigs was evaluated using a X-ray densitometry.

[4] = system: meniscus derived from osteoarthritis patients; experiment: Microarray gene expression in cultured minced meniscus; assay type: cell-based, human; conditions: 7 day treatment, Skeletal Development gene
Description: In this example, meniscus derived from osteoarthritis patients were minced into small pieces and cultured in the absence or presence of magnesium phosphcitrate (MgPC). After 7 day treatment, RNA was extracted and gene expression was investigated using microarray.

calcium phosphorcitrate [CaPC]
formation of bone (Hartley guinea pigs [1]; vs saline): promoted the formation of bone
bone mineral content of the front limb (Hartley guinea pigs [1]; vs untreated): higher
diameter of the front limb (Hartley guinea pigs [1]; vs untreated): larger
trabecular bone and marrow space of femur (Micro-CT image) (Hartley guinea pigs [2]; 30 mg/kg intraperitoneal twice per week, eight months, vs untreated): more trabecular bone and less marrow space
Bone Volume (Hartley guinea pigs [2]; distal femur, region of interest over 60 sections, untreated 0.19 + 0.04): 0.49 + 0.09
Trabecular Number (Hartley guinea pigs [2]; distal femur, region of interest over 60 sections, untreated 0.43 + 0.08): 1.07 + 0.15
Tissue Volume (Hartley guinea pigs [2]; distal femur, region of interest over 60 sections, untreated 10.76 + 1.9): 10.76 + 1.9
Trabecular Thickness (Hartley guinea pigs [2]; distal femur, region of interest over 60 sections, untreated 32.90 + 3.6): 42.00 + 4.9
Subchondral bone mineral density (Hartley guinea pigs [3]; Pair one, untreated 0.143): 0.157 g/cm^2
Subchondral bone mineral density (Hartley guinea pigs [3]; Pair three, untreated 0.150): 0.181 g/cm^2
Subchondral bone mineral density (Hartley guinea pigs [3]; Pair two, untreated 0.146): 0.161 g/cm^2
Differential Expression ACAN [4]: significantly induced
Differential Expression COL2A1 [4]: significantly induced
Differential Expression COL11A1 [4]: significantly induced

magnesium phosphcitrate [MgPC]
Differential Expression ACAN [4]: 2.0
Differential Expression COL2A1 [4]: 2.0
Differential Expression COL11A1 [4]: 2.7
